Data as given in ChEMBL document CHEMBL1128004, “Ketones related to the benzoate 5-HT4 receptor antagonist RS-23597 are high affinity partial agonists” (Bioorg Med Chem Lett, 1994).

Experiments:
[1] = target: 5-hydroxytryptamine receptor 4 (Homo sapiens) (UniProt Q13639); test: Compound was tested for 5-HT4 receptor in rat esophageal muscularis mucosae; Antagonist; assay type: functional; conditions: filed as antagonist, target entry is the homologue from another species
[2] = target: 5-hydroxytryptamine receptor 4 (Homo sapiens) (UniProt Q13639); test: Compound was tested for antagonist activity against 5-HT4 receptor in rat esophageal muscularis mucosae; assay type: functional, tissue-based; conditions: Muscularis mucosa, target entry is the homologue from another species
[3] = target: 5-hydroxytryptamine receptor 4 (Homo sapiens) (UniProt Q13639); test: Intrinsic activity relative to the 5-HT was determined; assay type: functional; conditions: Rattus norvegicus

5-hydroxytryptamine receptor 4 (Homo sapiens), sequence (Q13639 whole entry): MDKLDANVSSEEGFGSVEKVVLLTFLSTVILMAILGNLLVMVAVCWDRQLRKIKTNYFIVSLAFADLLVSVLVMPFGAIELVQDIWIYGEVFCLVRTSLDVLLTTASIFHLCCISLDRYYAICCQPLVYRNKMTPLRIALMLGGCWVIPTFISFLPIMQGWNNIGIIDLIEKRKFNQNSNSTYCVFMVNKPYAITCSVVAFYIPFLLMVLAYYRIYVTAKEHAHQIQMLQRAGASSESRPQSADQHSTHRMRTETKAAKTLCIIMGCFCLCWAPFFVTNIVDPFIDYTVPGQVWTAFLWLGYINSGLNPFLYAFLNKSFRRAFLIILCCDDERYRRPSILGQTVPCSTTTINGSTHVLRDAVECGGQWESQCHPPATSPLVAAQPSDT

| Intrinsic activity [3] | SMILES | also measured |
| --- | --- | --- |
| 0.5 | CCN(CC)CCNC(=O)c1cc(Cl)c(N)cc1OC | – |
| 0.6 | COc1cc(N)c(Cl)cc1C(=O)NC[C@@H]1CCN2CCC[C@@H]12 | – |

The next lines start with the compound.

| SMILES | Intrinsic activity [3] | also measured |
| --- | --- | --- |
| COc1cc(N)c(Cl)cc1C(=O)CCC1CCN(CCCNS(C)(=O)=O)CC1 | – | Activity [1]: Antagonist |
| CCN(CC)CCOC(=O)c1cc(Cl)c(N)cc1OC | – | pKb [2]: 7.3 |
| COc1cc(N)c(Cl)cc1C(=O)NCCN1CCCCC1 | 0.6 | – |
| COc1cc(N)c(Cl)cc1C(=O)CCC1CCN(CCNS(C)(=O)=O)CC1 | 0.5 | – |
| COc1cc(N)c(Cl)cc1C(=O)OCCN1CCCCC1 | 0.5 | – |
| COc1cc(N)c(Cl)cc1C(=O)OCCCN1CCCCC1 | – | pKb [2]: 7.9 |
